System: MDSCs and T cells
Assay: T cell proliferation in a co-culture model of MDSCs and T cells (flow cytometry)
Type: cell-based, mice
Conditions: MDSCs treated with 1 µM compound for 12 h, 48 h co-culture with T cells (1:1), compared to the control group
Method: Under sterile conditions, the tibia was removed, both ends of the bone were cut, and bone marrow was repeatedly flushed into a 15 mL centrifuge tube using a 1 mL syringe filled with culture medium. Centrifuge at 1600 rpm for 5 min to collect bone marrow cells. […] The spleen cell suspension was then transferred into a 15 mL centrifuge tube. Centrifuge at 1600 rpm for 5 min to collect T cells. Wash twice with 1×PBS. Resuspend the centrifuged T cells in 1 mL PBS and add 1 mL of 10 µM CFDA-SE solution. Incubate at room temperature for 8 min. […] After drug administration, collect MDSC cells into centrifuge tubes. Centrifuge at 1600 rpm for 5 min, remove supernatant, resuspend in 1 mL fresh medium, and plate. Add 1 mL stimulated activated T cells (1:1 ratio) for 48 h co-culture. After incubation, collect cells into centrifuge tubes, wash twice with PBS, and incubate with Fc antibody at room temperature in the dark for 10 min. Add CD3-labeled flow cytometry antibody and incubate at 4 °C in the dark for 30 min. After incubation, wash cells with PBS, resuspend in 300 µL PBS, and analyze by flow cytometry.

SMILES | T-cell proliferation rate (%)
C=C1C(=O)O[C@H]2[C@H]1CCC(C)=C1CC[C@@](C)(OC(=O)N3CCC(C)CC3)[C@@H]12 [compound 84] | ++ (T-cell proliferation rate within the 20-40% range compared to the control group)
C=C1C(=O)O[C@H]2[C@H]1CCC(C)=C1CC[C@@](C)(OC(=O)N3CCN(C)CC3)[C@@H]12 [compound 85] | + (T-cell proliferation rate within the 0-20% range compared to the control group)
C=C1C(=O)O[C@H]2[C@H]1CCC(C)=C1CC[C@@](C)(OC(=O)N3CCN(CC)CC3)[C@@H]12 [compound 86] | ++ (T-cell proliferation rate within the 20-40% range compared to the control group)
C=C1C(=O)O[C@H]2[C@H]1CCC(C)=C1CC[C@@](C)(OC(=O)N3CCOCC3)[C@@H]12 [compound 87] | +++ (T-cell proliferation rate >40% compared to the control group)
C=C1C(=O)O[C@H]2[C@H]1CCC(C)=C1CC[C@@](C)(OC(=O)NCC(C)C)[C@@H]12 [compound 88] | ++ (T-cell proliferation rate within the 20-40% range compared to the control group)
C=C1C(=O)O[C@H]2[C@H]1CCC(C)=C1CC[C@@](C)(OC(=O)NCC(F)F)[C@@H]12 [compound 89] | ++ (T-cell proliferation rate within the 20-40% range compared to the control group)
C=C1C(=O)O[C@H]2[C@H]1CCC(C)=C1CC[C@@](C)(OC(=O)N(C)CCC)[C@@H]12 [compound 90] | ++ (T-cell proliferation rate within the 20-40% range compared to the control group)
C=C1C(=O)O[C@H]2[C@H]1CCC(C)=C1CC[C@@](C)(OC(=O)N(CC)CCC)[C@@H]12 [compound 91] | ++ (T-cell proliferation rate within the 20-40% range compared to the control group)
C=C1C(=O)O[C@H]2[C@H]1CCC(C)=C1CC[C@@](C)(OC(=O)NCCCN3CCOCC3)[C@@H]12 [compound 92] | ++ (T-cell proliferation rate within the 20-40% range compared to the control group)
C=C1C(=O)O[C@H]2[C@H]1CCC(C)=C1CC[C@@](C)(OC(=O)NCCCN3CCN(C)CC3)[C@@H]12 [compound 93] | ++ (T-cell proliferation rate within the 20-40% range compared to the control group)
C=C1C(=O)O[C@H]2[C@H]1CCC(C)=C1CC[C@@](C)(OC(=O)N3CCC(N4CCOCC4)CC3)[C@@H]12 [compound 94] | ++ (T-cell proliferation rate within the 20-40% range compared to the control group)
C=C1C(=O)O[C@H]2[C@H]1CCC(C)=C1CC[C@@](C)(OC(=O)NCCN3CCN(C)CC3)[C@@H]12 [compound 95] | ++ (T-cell proliferation rate within the 20-40% range compared to the control group)
CC1=C2CC[C@@](C)(OC(=O)N3CCCCC3)[C@@H]2[C@H]2OC(=O)[C@@H](CN3CCCC3)[C@@H]2CC1 [compound 96] | + (T-cell proliferation rate within the 0-20% range compared to the control group)
CC1=C2CC[C@@](C)(OC(=O)N3CCCCC3)[C@@H]2[C@H]2OC(=O)[C@@H](CN(C)C)[C@@H]2CC1 [compound 97] | + (T-cell proliferation rate within the 0-20% range compared to the control group)

Reference: patent EP4813381A1, “PHARMACEUTICAL USE OF GUAIANE SESQUITERPENE DERIVATIVE” (Nanjing University Of Chinese Medicine, priority 2023, dated 2025)
